Measured values reported in PMC9025605, “Polymerized β-Cyclodextrin-Based Injectable Hydrogel for Sustained Release of 5-Fluorouracil/Methotrexate Mixture in Breast Cancer Management: In Vitro and In Vivo Analytical Validations” (Pharmaceutics, 2022).
Read-outs that look alike come from different tables or passages of the source.

How the values were obtained:
[1] = In vitro release of 5-FU and MTX from the medicated hydrogel in PBS at 37 °C; format: physicochemical; details: for duration of quantitative release from hydrogel: 0.1% w/v; for drug released from hydrogel within the first day / drug released from hydrogel within the second day: 0.1% w/v drug in hydrogel
Procedure: Several samples (n = 6) of the medicated hydrogel (0.5 g, containing 0.5 mg of each 5-FU and MTX), were placed in 2-mL glass vials and allowed to be incubated at 4 °C for 2 h. Next, one mL of PBS was added above the formulated hydrogel mass and allowed to be incubated in a thermostatic water bath under a shaking rate of 50 rpm at 37 °C. After specific time intervals (each 24 h), 700 µL of the supernatant was withdrawn and replaced immediately with a fresh-prepared PBS, previously incubated at the same temperature to ensure the sink conditions. This process of sample withdrawal and replacing was allowed to continue until the complete clearance or full release of both two incorporated drugs from the hydrogel samples. Thus, the concentration of 5-FU and MTX in the mixture, in each collected sample, was measured simultaneously at 266 nm and 302 nm, respectively, with the aid of the spectrophotometric method, as mentioned before.

[2] = Pharmacokinetic study after intratumoral injection (plasma, HPLC); format: in vivo, albino female rats; details: for Cmax: rat plasma
Procedure: The present in vivo works was performed on albino female rats (weighing 185 ± 15.1 g). The ethical approval of all the experiments was issued by the Faculty of Pharmacy, Al-Azhar University, under no AZ-AS/PH/2/C/2021. The rats were acclimatized at room temperature with a 12-h light/12-h dark cycle. Tumor-induction of 48 female rats were randomly divided into the four independent groups (with n = 12 per each group × triple trials); G1 was the controlled group, which is positive control and were received no any type of medications; G2 received a sole dose of 5-FU saline solution (100 mg/kg); G3 received a combined mixture of 5-FU/MTX saline solution (respectively, 100 and 40 mg/kg); and, finally, G4 received 5-FU/MTX hydrogel. The sole 5-FU and/or combined with MTX doses in normal saline were injected into rats using normal syringes, while the injectable medicated hydrogel doses were injected using a mixing syringe device (Doowon Meditec Corp., Youngin City, Republic of Korea). After finishing the administration processes, blood samples were collected at certain time intervals (0.5, 1, 2, 4, 6, 8, 10, 12, and 14 h). HPLC chromatographic analysis was utilized for the detection of drug concentrations.
One mL of a plasma sample in an Eppendorf tube was initially mixed with phosphate buffer (0.2 mL of 0.5 M at pH 8), after being mixed in a vortex, and an ethyl acetate solution (4.0 mL) was added and mixed in a vortex for 1 min. Then, the contents of the tube were centrifuged at 5000 rpm and temperature 10 °C for 5 min. The organic phase was taken and evaporated until dry, by using a stream of nitrogen gas at 55 °C. The drug mixture in the residue was reconstituted by a solution of potassium dihydrogen phosphate (100 µL of 0.01 M, at pH 4.0), and, then, the resulted solution was filtrated through a 0.2 μm filter syringe, before transferring into autosampler vials of the chromatographic analysis.
A high-performance liquid chromatography, HPLC (Parkin Elmer, JASCO Corporation, Tokyo, Japan), equipped with an autosampler, was used through this study. The detection method was performed using a variable wavelength UV detector, which adjusted at 266 nm for both drugs. The analytical Phenomenex, C18 symmetry RPh-column (4.6 × 250 mm; 5 µm PS) (Cap cell Pak UG120, Shiseido, Tokyo, Japan), was used at 40 °C. The mobile phase was an isocratic mixture (89:11, v/v) of, respectively, methanol and potassium dihydrogen phosphate (10 mM and adjusted to pH 4 with the aid orthophosphoric acid), which was pumped at a flow rate of 1.0 mL/min. The injected volume was 20 µL.
The concentrations of 5-FU and MTX in different rats’ plasma samples (n = 6) were calculated from the corresponding calibration curves equation, developed in the above HPLC method. The plasma concentration-time (Cp/) curve of 5FU/MTX (plasma concentrations; µg/mL in case of using a vehicle of saline, and ng/mL in case of using a vehicle hydrogel) was constructed for both drugs. Next, from the constructed (Cp/t) curves, all the common pharmacokinetic parameters of both drugs were determined using the following Equation (1). […] Moreover, the area under the Cp/t curve (AUC0-24 and AUC0-∞) (ng. h/mL) was measured using the trapezoidal rule to indicate the extent of drug absorption. The peak Cp (Cmax), the time corresponding to the maximum Cp (Tmax), and the half-life, t1/2 (h), were calculated.

[3] = system: breast tumor (chemically induced breast cancer); experiment: Effect on tumor growth (tumor volume, % inhibition); format: in vivo, female rats; details: negative = tumor growth, read from Figure 6
Procedure: For transplantation experiments, recipient syngeneic female rats (6–7 weeks old) were anesthetized with an intramuscular injection of ketamine (8.0 mg/kg dose) and xylazine (10 mg/kg dose). Breast cancer was induced to the investigated rats by chemical induction using […], previously reported techniques. […] The tumor size for all animals was examined using a Vernier caliper (micrometer-Ozaki Ltd., Tokyo, Japan) and calculated using the following Equation (2). TV (mm^3) = 1/2 × Length × Width^2(2)
Thus, the changes in a tumor volume in rats were determined every 5 days for 15 days after administration of the injectable medicated hydrogel (contains a concentration of 100 and 40 mg/kg, respectively, for 5-FU and MTX). The antitumor effect was monitored via measuring both the relative tumor volume (RTV), representing the tumor volume after treatment, using Equation (3). (3) % RTV=(Vt)/(V0)×100 where, Vt represents the tumor volume at each time interval, and V0 is a tumor volume directly after drug injection. The % of tumor volume inhibition was calculated using the following Equation (4). (4) % Inhibition =1−(Vt)/(V0)×100

[4] = system: mammary gland tissues; experiment: Histopathological examination of tumor masses (H and E); format: in vivo, female rats; details: tumor-bearing rats versus untreated G1
Procedure: Several tissue samples (n = 3) were taken from the tumor masses of the induced mammary glands and were fixed in formalin for 24 h. The fixed samples were processed for the usual histological procedures for hematoxylin and eosin stains, the counter staining of ultra-thin paraffin sections (5 µm; Micro HM 360® Microtome, Marshall Scientific, Hampton Virginia, USA). The stained sections were examined under a light microscope (Olympus B × 46) and were digitally photographed using its connected Olympus DP 21 digital camera (Olympus Corporation, Tokyo, Japan).

[5] = design: method as in PMID 1246307, PMID 18794772, PMID 15018974; details: cited from earlier work

duration of quantitative release from hydrogel [1] | drug released from hydrogel within the first day [1] [%] | drug released from hydrogel within the second day [1] [%] | completeness of the release profile of 5-FU ([1]; drug concentration 0.1%) [days] | completeness of the release profile of 5-FU ([1]; drug concentration 0.3%) [days] | completeness of the release profile of 5-FU ([1]; drug concentration 0.5%) [days] | Tmax ([2]; female, rat, plasma, 100 mg/kg, sole administration of 5-FU in saline) [min] | Cmax ([2]; female, 5-FU alone in saline, 100 mg/kg, intratumoral, read-out: Cmax) [ng/mL] | time within which in vivo release ended ([2]; free 5-FU solution, 100 mg/kg in saline) [h] | elimination half-life (t1/2) ([2]; free 5-FU solution, first order) [min] | Cmax ([2]; female, other: intratumoral injection, MTX 40 mg/kg, combined with 5-FU in saline, read-out: Cmax of MTX) [ng/mL] | Compound | % Inhibition of tumor volume ([3]; 5 days after treatment) [%] | % Inhibition of tumor volume ([3]; 10 days after treatment) [%] | % Inhibition of tumor volume ([3]; 15 days after treatment) [%] | histopathological finding in mammary gland tissue [4] | half-life [5] [min]
two weeks | 15 | 38 | ≤ 14 | ≤ 18 | ≤ 21 | 60 | 25200 | ≤ 7 | 30 | – | O=c1[nH]cc(F)c(=O)[nH]1 [5-FU, 5-fluorouracil] | -25 | -90 | -185 | Only mild improvement | 10 to 20
two weeks | 40 | 60 | – | – | – | – | – | – | – | 15200 | CN(Cc1cnc2nc(N)nc(N)c2n1)c1ccc(C(=O)N[C@@H](CCC(=O)O)C(=O)O)cc1 [MTX, methotrexate] | – | – | – | – | –
